# Laboratory results: patent US20120128705A1, “C6ORF167 PEPTIDES AND VACCINES CONTAINING THE SAME” (OncoTherapy Science, Inc., priority 2009, published 2012)
# Ends that are not written are not given here.
# How the values were obtained:
# [1] = system: peptide-pulsed T2; test: IFN-gamma ELISA assay of CTL lines (HLA-A*0201); format: cell-based, human; details: target cells pulsed with corresponding peptide vs without peptide pulse
# Protocol: CTLs were expanded in culture using the method similar to the one described by Riddell et al. (Walter E A et al., N Engl J Med 1995 Oct. 19, 333(16): 1038-44; Riddell S R et al., Nat Med 1996 February, 2(2): 216-23). A total of 5×10^4 CTLs were suspended in 25 ml of AIM-V/5% AS medium with 2 kinds of human B-lymphoblastoid cell lines, inactivated by Mitomycin C, in the presence of 40 ng/ml of anti-CD3 monoclonal antibody (Pharmingen). One day after initiating the cultures, 120 IU/ml of IL-2 were added to the cultures. The cultures were fed with fresh AIM-V/5% AS medium containing 30 IU/ml of IL-2 on days 5, 8 and 11 (Tanaka H et al., Br J Cancer 2001 Jan. 5, 84(1): 94-9; Umano Y et al., Br J Cancer 2001 Apr. 20, 84(8): 1052-7; Uchida N et al., Clin Cancer Res 2004 Dec. 15, 10(24): 8577-86; Suda T et al., Cancer Sci 2006 May, 97(5): 411-9; Watanabe T et al., Cancer Sci 2005 August, 96(8): 498-506).
# (§1) To examine specific CTL activity, interferon (IFN)-gamma enzyme-linked immunospot (ELISPOT) assay and IFN-gamma enzyme-linked immunosorbent assay (ELISA) were performed. Specifically, peptide-pulsed T2 (1×10^4/well) was prepared as stimulator cells. Cultured cells in 48 wells were used as responder cells. IFN-gamma ELISPOT assay and IFN-gamma ELISA assay were performed under manufacture procedure.
# [2] = system: peptide-pulsed T2; test: IFN-gamma ELISA assay of CTL clones (HLA-A*0201); format: cell-based, human; details: clones by limiting dilution; target cells pulsed with peptide
# Protocol: The dilutions were made to have 0.3, 1, and 3 CTLs/well in 96 round-bottomed micro titer plate (Nalge Nunc International). CTLs were cultured with 1×10^4 cells/well of 2 kinds of human B-lymphoblastoid cell lines, 30 ng/ml of anti-CD3 antibody, and 125 U/ml of IL-2 in a total of 150 micro-l/well of AIM-V Medium containing 5% AS. 50 micro-1/well of IL-2 were added to the medium 10 days later so to reach a final concentration of 125 U/ml IL-2. CTL activity was tested on the 14th day, and CTL clones were expanded using the same method as described above (Uchida N et al., Clin Cancer Res 2004 Dec. 15, 10(24): 8577-86; Suda T et al., Cancer Sci 2006 May, 97(5): 411-9; Watanabe T et al., Cancer Sci 2005 August, 96(8): 498-506).
# as §1
# [3] = system: COS7 cells transfected with C6orf167 and HLA-A*0201; test: Specific CTL activity against target cells exogenously expressing C6orf167 and HLA-A*0201; format: cell-based, African green monkey; details: for Specific CTL activity against control COS7 cells: COS7 transfected with either full length C6orf167 or HLA-A*0201 alone; for Specific CTL activity against COS7 cells expressing both C6orf167 and HLA-A*0201: CTL line (SEQ ID NO: 79) or CTL clone (SEQ ID NO: 114) as effector cells
# Source text: The cDNA encoding an open reading frame of target genes or HLA-A*0201 was amplified by PCR. The PCR-amplified product was cloned into pCAGGS vector and pIRES vector (Clontech Laboratories, Inc., Cat. No. 631605). The plasmids were transfected into COS7, which is the target genes and HLA-A*0201-null cell line, using lipofectamine 2000 (Invitrogen) according to the manufacturer's recommended procedures. After 2 days from transfection, the transfected cells were harvested with versene (Invitrogen) and used as the target cells (5×10^4 cells/well) for CTL activity assay.
# The established CTL lines and clones raised against each peptide were examined for the ability to recognize target cells that endogenously express C6orf167 and HLA-A*0201 molecule. Specific CTL activity against COS7 cells which transfected with both the full length of C6orf167 and HLA-A*0201 gene (a specific model for the target cells that exogenously express C6orf167 and HLA-A*0201 gene) was tested by using the CTL lines and clones raised by corresponding peptide as the effector cells. COS7 cells transfected with either full length of C6orf167 or HLA-A*0201 were prepared as the controls.
# [4] = system: peptide-pulsed T2; test: IFN-gamma ELISPOT assay on CTLs induced with peptide (HLA-A*0201); format: cell-based, human; details: CTLs from HLA-A*0201 positive donor, 3 rounds of stimulation, day 21; vs control wells without peptide
# Source text: Monocyte-derived dendritic cells (DCs) were used as antigen-presenting cells to induce cytotoxic T lymphocyte (CTL) responses against peptides presented on human leukocyte antigen (HLA). DCs were generated in vitro as described elsewhere (Nakahara S et al., Cancer Res 2003 Jul. 15, 63(14): 4112-8). Specifically, peripheral blood mononuclear cells (PBMCs) isolated from a normal volunteer (HLA-A*0201 positive) by Ficoll-Plaque (Pharmacia) solution were separated by adherence to a plastic tissue culture dish (Becton Dickinson) so as to enrich them as the monocyte fraction. The monocyte-enriched population was cultured in the presence of 1,000 U/ml of granulocyte-macrophage colony-stimulating factor (R&D System) and 1,000 U/ml of interleukin (IL)-4 (R&D System) in AIM-V Medium (Invitrogen) containing 2% heat-inactivated autologous serum (AS). After 7 days of culture, the cytokine-induced DCs were pulsed with 20 micro-g/ml of each of the synthesized peptides in the presence of 3 micro-g/ml of beta 2-microglobulin for 3 hrs at 37 degrees C. in AIM-V Medium. The generated cells appeared to express DC-associated molecules, such as CD80, CD83, CD86 and HLA class II, on their cell surfaces (data not shown). These peptide-pulsed DCs were then inactivated by X-irradiated (20 Gy) and mixed at a 1:20 ratio with autologous CD8+ T cells, obtained by positive selection with CD8 positive Isolation Kit (Dynal). These cultures were set up in 48-well plates (Corning); each well contained 1.5×10^4 peptide-pulsed DCs, 3×10^5 CD8+ T cells and 10 ng/ml of IL-7 (R&D System) in 0.5 ml of AIM-V/2% AS medium. Three days later, these cultures were supplemented with IL-2 (CHIRON) to a final concentration of 20 IU/ml. On days 7 and 14, the T cells were further stimulated with the autologous peptide-pulsed DCs. The DCs were prepared each time by the same way described above. CTL was tested against peptide-pulsed T2 cells after the 3rd round of peptide stimulation on day 21 (Tanaka H et al., Br J Cancer 2001 Jan. 5, 84(1): 94-9; Umano Y et al., Br J Cancer 2001 Apr. 20, 84(8): 1052-7; Uchida N et al., Clin Cancer Res 2004 Dec. 15, 10(24): 8577-86; Suda T et al., Cancer Sci 2006 May, 97(5): 411-9; Watanabe T et al., Cancer Sci 2005 August, 96(8): 498-506).
# as §1
Substance,IFN-gamma production of CTL lines by ELISA [1],IFN-gamma production of CTL clones by ELISA [2],Specific CTL activity against control COS7 cells [3],Specific CTL activity against COS7 cells expressing both C6orf167 and HLA-A*0201 [3],Peptide specific CTL activity: IFN-gamma production by ELISPOT [4]
TLLCDLISL [SEQ ID NO: 79],potent IFN-gamma production,Potent IFN-gamma productions,no significant specific CTL activity,potent CTL activity,potent IFN-gamma production
TLLSiYIDGV (TLLSIYIDGV; not fully specified; printed as TLLSiYIDGV) [SEQ ID NO: 114],potent IFN-gamma production,Potent IFN-gamma productions,no significant specific CTL activity,potent CTL activity,potent IFN-gamma production
